In US4568666A, “Carboxylalkyl peptide derivatives” (G. D. Searle & Co., priority 1984, dated 1986):

Columns and labels:
[1] = system: rat model of inflammatory arthritis; experiment: Rat model of inflammatory arthritis induced by Type II collagen (Trentham et al.); type: in vivo; conditions: prednisolone 0.625 mg/kg b.i.d.
Procedure: The therapeutic effectivness is assessed in the rat model of inflammatory arthritis described by Trentham et al. (1977). In this model, the arthritis, induced by an intradermal injection of Type II collagen, generally develops in both hind paws and the progression and severity of the lesion are monitored by physical measurements of the malleolar width and ankle extensibility.
The compound of Example II in the present specification was administered by intraperitoneal injections at 100 mg/kg twice daily for 21 days commencing seven days after the injection of the disease.
Drugs (Example 11 or prednisolone) and vehicle were administered to groups of 10 rats each. Physical measurements on the rat paws were made weekly for four weeks and consisted of (a) the distance between the medial and lateral malleolus (malleolar width) and (b) the ankle extension which was measured by applying a standard force to th rat paw and measuring the angle formed between the flexor surface of the foot and the tibia. Evidence of a therapeutic effect was denoted by a significant reduction in malleolar width and a significant increase in ankle extension. Both measurements were carried out in apparatus designed for the purpose. Area-under-the-curve data from these time course experiments was examinaed by non-parametic statistical analysis. The prednisolone standard was given at a dose of 0.625 mg/kg b.i.d. Prednisolone was chosen as a standard since steroids are known to be effective both clinically in Rheumatoid Arthritis and in animal models of arthritis.

[2] = target: T1, Human Rheumatoid Synovial Collagenase (Homo sapiens, UniProt P03956); experiment: Collagenase inhibition (procedure of Cawston and Barrett, acetyl 14C collagen); type: biochemical; conditions: 37° C., 16 hours, native acetyl 14C collagen, Tris HCl-CaCl2 pH 7.6
T1 construct: from tissue
T1 sequence (P03956 100-469): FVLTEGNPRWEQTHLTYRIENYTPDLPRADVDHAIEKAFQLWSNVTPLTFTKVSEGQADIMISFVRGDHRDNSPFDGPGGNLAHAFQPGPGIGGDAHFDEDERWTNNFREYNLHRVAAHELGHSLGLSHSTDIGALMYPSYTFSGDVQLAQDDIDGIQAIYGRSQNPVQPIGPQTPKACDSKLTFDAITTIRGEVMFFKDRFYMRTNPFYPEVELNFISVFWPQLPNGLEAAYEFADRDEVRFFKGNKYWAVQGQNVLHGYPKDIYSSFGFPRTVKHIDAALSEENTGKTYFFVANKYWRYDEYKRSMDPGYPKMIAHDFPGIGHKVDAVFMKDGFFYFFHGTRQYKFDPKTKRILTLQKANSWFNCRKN
Procedure: This was determined following the procedure of Cawston and Barrett, Anal. Biochem., 99, 340-345 (1979) whereby the 1 mM of the inhibitor being tested or dilutions thereof are incubated at 37° C. for 16 hours with native collagen and collagenase (buffered with Tris HCl--CaCl2; pH 7.6). The collagen is acetyl ^14 C collagen. The samples are centrifuged to sediment undigested collagen and an aliquot of the radiactive supernatant removed for assay on a scintillation counter as a measure of hydrolysis. The collagenase activity in the presence of 1 mM inhibitor, or a dilution thereof, is compared to activity in a control devoid of inhibitor and the results reported as that inhibitor concentration effecting 50% inhibition of the collagenase.

[3] = arthritic rats' paws, Example 11 100 mg/kg i.p. twice daily for 21 days, area-under-the-curve data
[4] = mean of experiments 1-3, Example 11 100 mg/kg i.p. twice daily

Row | IC50 [2] [µM] | SMILES | Ankle extension, percentage change from control, experiment number 2 [1, 3] [%] | Ankle extension, percentage change from control, experiment number 3 [1, 3] [%] | Malleolar width, percentage change from control, experiment number 1 [1, 3] [%] | Malleolar width, percentage change from control, experiment number 2 [1, 3] [%] | Malleolar width, percentage change from control, experiment number 3 [1, 3] [%] | Ankle extension, percentage change from control, mean [1, 4] [%] | Malleolar width, percentage change from control, mean [1, 4] [%] | Ankle extension, percentage change from control, experiment number 1 [1, 3] [%]
1 |  | C[C@]12C=CC(=O)C=C1CC[C@@H]1[C@@H]2[C@@H](O)C[C@@]2(C)[C@H]1CC[C@]2(O)C(=O)CO [Prednisolone, prednisolone, reference compound] | 96 | 95 | 98 | 96 | 97 | 97 | 97 | 
2 | 0.8 | CNC(=O)[C@H](Cc1ccc(OC)cc1)NC(=O)[C@H](CC(C)C)N[C@H](CCNC(=O)OCc1ccccc1)C(=O)O [Example 11, N-[3-N-(Benzyloxycarbonyl)amino-1-(R)-carboxypropyl]-L-leucyl-O-methyl-L-tyrosine N-Methylamide] | 39 | 39 | 65 | 43 | 41 | 48 |  | 66
